In patent US20090247516A1, “3- (BENZO [D] [1,3] DIOXOL-5-YLMETHYL) -4- (THIO) OXO-2- (THIO) OXO-AZOLIDIN-5-YLIDENE DERIVATIVES AS ANTIBACTERIAL AGENTS” (priority 2006, published 2009):
Read-outs that look alike come from different tables or passages of the source.

Assays:
[1] = molecular target: T1, S. aureus MurE (Staphylococcus aureus, UniProt Q2FZP6); assay: MurE enzyme assay (Method B); type: biochemical; details: for activity at 100 µM: residual activity at 100 μM inhibitor, assay with 5% DMSO and without inhibitor taken as 100%, means of duplicates, read-out: S. aureus MurE RA at 100 μM inhibitor conc.; for IC50: several inhibitor concentrations, Hill equation
T1 sequence (Q2FZP6 1-493): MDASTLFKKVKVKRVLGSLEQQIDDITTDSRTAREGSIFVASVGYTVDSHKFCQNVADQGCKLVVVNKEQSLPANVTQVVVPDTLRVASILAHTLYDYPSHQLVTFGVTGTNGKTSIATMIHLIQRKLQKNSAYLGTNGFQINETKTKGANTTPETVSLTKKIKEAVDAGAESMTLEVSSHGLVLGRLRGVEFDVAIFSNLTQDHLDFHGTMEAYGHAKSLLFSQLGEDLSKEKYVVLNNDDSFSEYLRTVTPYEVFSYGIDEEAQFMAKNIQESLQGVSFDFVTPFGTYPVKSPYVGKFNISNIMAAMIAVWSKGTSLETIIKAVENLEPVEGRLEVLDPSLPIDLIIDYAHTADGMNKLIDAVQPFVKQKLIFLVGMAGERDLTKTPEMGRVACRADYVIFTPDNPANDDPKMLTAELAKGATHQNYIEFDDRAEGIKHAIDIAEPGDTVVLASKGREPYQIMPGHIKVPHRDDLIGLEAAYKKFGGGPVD
Method: Method B: MurE Enzyme Assay
The compounds are tested for their ability to inhibit the formation of UDP-MurNAc-L-Ala-γ-D-Glu-L-[^14C]Lys in mixtures (50 μl) containing 0.1 M Tris-HCl, pH 8.6, 15 mM MgCl2, 5 mM ATP, 100 μM UDP-MurNAc-L-Ala-γ-D-Glu, 200 μM L-[^14C]Lys (50,000 cpm), inhibitor (100 μM), DMSO (5%, v/v), and enzyme from S. aureus. After 30 min at 37° C., the reaction is stopped by addition of acetic acid (10 μl). After lyophilization, L-[^14C]Lys and of UDP-MurNAc-L-Ala-Y-D-Glu-L-[^14C]Lys are separated by reverse-phase HPLC on Nucleosil 100C18 5U (150×4.6 mm) in 50 mM ammonium formate, pH 4.7, at 0.6 ml/min, and quantitated by on-line scintillation counting using the Quicksafe Flow 2 scintillating fluid. The residual activity is determined with respect to an assay with 5% DMSO and without inhibitor (taken as 100%). Values presented are means of duplicates.
IC50 values were determined with several concentrations of the inhibitor using the Hill equation:
(§1) log[vi/(vo−vi)]=−n log[l]+logK′
(§2) where vo is the rate without inhibitor, vi the rate in the presence of inhibitor and n the Hill number.

[2] = molecular target: E. coli MurD (Escherichia coli, UniProt P14900); assay: MurD enzyme assay (Method A); type: biochemical; details: for activity at 100 µM: read-out: E. coli MurD RA at 100 μM inhibitor conc.
Method: Method A: MurD Enzyme Assay
The compounds are tested for their ability to inhibit the formation of UDP-MurNAc-L-Ala-D-[^14C]Glu in mixtures (50 μl) containing 0.1 M Tris-HCl, pH 8.6, 5 mM MgCl2, 5 mM ATP, 25 μM UDP-MurNAc-L-Ala, 25 μM D-[^14C]Glu, inhibitor (100 μM), DMSO (5%, v/v), and enzyme. After 30 min at 37° C., the reaction is stopped by addition of acetic acid (10 μl). After lyophilization, D-[^14C]Glu and of UDP-MurNAc-L-Ala-D-[^14C]Glu are separated by reverse-phase HPLC and quantitated by on-line scintillation counting. The residual activity is determined with respect to an assay with 5% DMSO and without inhibitor (taken as 100%). Values presented are means of duplicates.
IC50 values are determined with several concentrations of the inhibitor using the Hill equation:
as §1, §2

[3] = residual activity at 100 μM inhibitor, assay with 5% DMSO and without inhibitor taken as 100%, means of duplicates

Chain of E. coli MurD (P14900 whole entry): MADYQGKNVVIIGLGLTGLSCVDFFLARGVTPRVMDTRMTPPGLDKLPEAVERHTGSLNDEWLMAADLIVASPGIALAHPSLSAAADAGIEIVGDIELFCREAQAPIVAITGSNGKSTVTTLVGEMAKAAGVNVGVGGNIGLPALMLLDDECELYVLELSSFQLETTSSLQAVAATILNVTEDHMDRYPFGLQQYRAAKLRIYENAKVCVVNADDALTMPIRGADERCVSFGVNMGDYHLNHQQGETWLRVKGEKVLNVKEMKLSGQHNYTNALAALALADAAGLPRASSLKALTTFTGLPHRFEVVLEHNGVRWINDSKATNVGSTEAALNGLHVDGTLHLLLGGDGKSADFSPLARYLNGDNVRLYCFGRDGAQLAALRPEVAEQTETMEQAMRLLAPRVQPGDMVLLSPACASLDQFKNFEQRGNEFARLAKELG

SMILES | activity at 100 µM [1] [%] | IC50 [1] [µM] | IC50 [2] [µM] | activity at 100 µM [2, 3] [%] | activity at 100 µM [2] [%]
O=C1/C(=C/c2c(NCCOCCO)nc3ccccn3c2=O)SC(=S)N1Cc1ccc2c(c1)OCO2 [Example 5, (Z)-3-(benzo[d][1,3]dioxol-5-yl-methyl)-5-((2-(2-(2-hydroxyethoxy)ethylamino)-4-oxo-4H-pyrido[1,2-a]pyrimidin-3-yl)methylene)-2-thioxothiazolidin-4-one] | 10 | 14 | > 100 | 71 | 
O=C1/C(=C/c2ccccc2O)SC(=S)N1Cc1ccc2c(c1)OCO2 [Example 8, (Z)-3-(benzo[d][1,3]dioxol-5-yl-methyl)-5-(2-hydroxybenzylidene)-2-thioxothiazolidin-4-one] | 23 | 1.5 | > 100 | 100 | 
O=C1/C(=C/c2c(NCCO)nc3ccccn3c2=O)SC(=S)N1Cc1ccc2c(c1)OCO2 [Example 4, (Z)-3-(benzo[d][1,3]dioxol-5-yl-methyl)-5-((2-(2-hydroxyethylamino)-4-oxo-4H-pyrido[1,2-a]pyrimidin-3-yl)methylene)-2-thioxothiazolidin-4-one] | 4 | 4 | 15 | 26 | 
N#Cc1nc(/C=C2/SC(=S)N(Cc3ccc4c(c3)OCO4)C2=O)oc1N1CCOCC1 [Example 9, (E)-2-((3-(benzo[d][1,3]dioxol-5-yl-methyl)-4-oxo-2-thioxothiazolidin-5-ylidene)methyl)-5-morpholinooxazole-4-carbonitrile] | 17 | 51 | > 100 | 98 | 
O=C1/C(=C/c2c(NCC3CCCO3)nc3ccccn3c2=O)SC(=S)N1Cc1ccc2c(c1)OCO2 (centres unmarked) [Example 3, (Z)-3-(benzo[d][1,3]dioxol-5-yl-methyl)-5-((4-oxo-2-((tetrahydrofuran-2-yl)methylamino)-4H-pyrido[1,2-a]pyrimidin-3-yl)methylene)-2-thioxothiazolidin-4-one] | 4 | 5 | 24 | 7 | 
CCN(CC)c1ccc(/C=C2\SC(=S)N(Cc3ccc4c(c3)OCO4)C2=O)cc1 [Example 12, (Z)-3-(benzo[d][1,3]dioxol-5-yl-methyl)-5-(4-(diethylamino)benzylidene)-2-thioxothiazolidin-4-one] | 59 | > 100 | > 100 | 78 | 
COc1ccc(/C=C2\SC(=S)N(Cc3ccc4c(c3)OCO4)C2=O)c(OC)c1 [Example 14, (Z)-3-(benzo[d][1,3]dioxol-5-yl-methyl)-5-(2,4-dimethoxybenzylidene)-2-thioxothiazolidin-4-one] | 67 | > 100 | > 100 | 72 | 
CNc1nc2ccccn2c(=O)c1/C=C1\SC(=S)N(Cc2ccc3c(c2)OCO3)C1=O [Example 2, (Z)-3-(benzo[d][1,3]dioxol-5-yl-methyl)-5-((2-(methylamino)-4-oxo-4H-pyrido[1,2-a]pyrimidin-3-yl)methylene)-2-thioxothiazolidin-4-one] | 7 | 4 | 111 |  | 22
COc1ccccc1/C=C1\SC(=S)N(Cc2ccc3c(c2)OCO3)C1=O [Example 13, (Z)-3-(benzo[d][1,3]dioxol-5-yl-methyl)-5-(2-methoxybenzylidene)-2-thioxothiazolidin-4-one] | 90 | > 100 | > 100 | 75 | 
O=C1/C(=C/c2ccccn2)SC(=S)N1Cc1ccc2c(c1)OCO2 [Example 6, (Z)-3-(benzo[d][1,3]dioxol-5-yl-methyl)-5-(pyridin-2-yl-methylene)-2-thioxothiazolidin-4-one] | 5 | 37 | > 100 | 99 | 
O=C1/C(=C/c2cccc(O)c2)SC(=S)N1Cc1ccc2c(c1)OCO2 [Example 10, (Z)-3-(benzo[d][1,3]dioxol-5-yl-methyl)-5-(3-hydroxybenzylidene)-2-thioxothiazolidin-4-one] | 31 | 13 | > 100 | 97 | 
O=C1/C(=C/c2cccc([N+](=O)[O-])c2)SC(=S)N1Cc1ccc2c(c1)OCO2 [Example 7, (Z)-3-(benzo[d][1,3]dioxol-5-yl-methyl)-5-(3-nitrobenzylidene)-2-thioxothiazolidin-4-one] | 19 | 7 | > 100 | 98 | 
O=C1/C(=C/c2c(NCCCO)nc3ccccn3c2=O)SC(=S)N1Cc1ccc2c(c1)OCO2 [Example 1, (Z)-3-(benzo[d][1,3]dioxol-5-yl-methyl)-5-((2-(3-hydroxypropylamino)-4-oxo-4H-pyrido[1,2-a]pyrimidin-3-yl)methylene)-2-thioxothiazolidin-4-one] | 82 | > 100 | > 100 | 77 | 
CN(C)c1ccc(/C=C2\SC(=S)N(Cc3ccc4c(c3)OCO4)C2=O)cc1 [Example 11, (Z)-3-(benzo[d][1,3]dioxol-5-yl-methyl)-5-(4-(dimethylamino)benzylidene)-2-thioxothiazolidin-4-one] | 25 | 4.5 | > 100 | 95 | 
